The target in one test is T1, B1 bradykinin receptor (Rattus norvegicus, UniProt P97583).
T1 sequence (P97583 whole entry): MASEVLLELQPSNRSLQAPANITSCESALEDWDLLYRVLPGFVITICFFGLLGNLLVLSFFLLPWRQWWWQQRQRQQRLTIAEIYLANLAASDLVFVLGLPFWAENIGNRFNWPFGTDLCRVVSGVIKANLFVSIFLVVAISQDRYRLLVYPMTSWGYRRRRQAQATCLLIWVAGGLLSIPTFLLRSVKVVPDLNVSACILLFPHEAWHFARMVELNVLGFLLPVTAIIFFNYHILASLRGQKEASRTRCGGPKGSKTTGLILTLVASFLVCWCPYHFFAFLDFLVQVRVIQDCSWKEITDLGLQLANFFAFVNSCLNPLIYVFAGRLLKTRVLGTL
The test is described as follows: Compound was evaluated for agonist activity against B1 receptor in rat ileum longitudinal smooth muscle. Type of test: functional, tissue-based.

Test [1] deals with T2, B2 bradykinin receptor (Cavia porcellus, UniProt O70526).
T2 sequence (O70526 whole entry): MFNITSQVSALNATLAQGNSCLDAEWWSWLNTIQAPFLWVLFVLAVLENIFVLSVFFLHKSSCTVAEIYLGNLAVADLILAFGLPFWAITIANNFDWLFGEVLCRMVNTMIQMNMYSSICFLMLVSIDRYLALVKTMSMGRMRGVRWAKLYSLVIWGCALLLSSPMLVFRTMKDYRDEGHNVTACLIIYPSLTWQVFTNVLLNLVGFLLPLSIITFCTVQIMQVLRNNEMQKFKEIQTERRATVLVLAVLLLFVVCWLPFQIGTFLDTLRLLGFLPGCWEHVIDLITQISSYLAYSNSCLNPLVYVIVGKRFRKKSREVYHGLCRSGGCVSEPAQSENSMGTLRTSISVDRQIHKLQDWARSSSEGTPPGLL
The test is described as follows: Compound was evaluated for inhibitory activity against [3H]BK in the classical guinea pig ileum B2 binding assay. Type of test: tissue-based.

The target of test [2] is T2, B2 bradykinin receptor. The test is described as follows: Functional antagonism against BK-induced contractions in the classical guinea pig ileum B2 binding assay. Type of test: tissue-based. Conditions: read-out: pA2 (converted).
In test [3] the target is T3, B2 bradykinin receptor (Homo sapiens, UniProt P30411).
T3 sequence (P30411 whole entry): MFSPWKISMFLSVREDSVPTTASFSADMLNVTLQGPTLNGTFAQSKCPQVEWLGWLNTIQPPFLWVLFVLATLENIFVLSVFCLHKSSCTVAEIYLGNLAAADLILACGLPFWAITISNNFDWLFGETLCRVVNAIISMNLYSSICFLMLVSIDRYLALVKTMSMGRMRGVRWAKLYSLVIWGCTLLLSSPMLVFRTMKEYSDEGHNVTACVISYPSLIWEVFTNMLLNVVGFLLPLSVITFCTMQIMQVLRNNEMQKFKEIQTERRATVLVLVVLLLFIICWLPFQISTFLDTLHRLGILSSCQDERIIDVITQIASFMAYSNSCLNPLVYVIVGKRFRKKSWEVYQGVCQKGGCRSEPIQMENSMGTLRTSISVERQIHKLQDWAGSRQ
Kind of test: Compound was evaluated for inhibitory activity against [3H]BK in membrane preparations from a stable cell line that expresses the human B2 receptor.

What is called EC50 is the concentration at which the effect is half-maximal. Low readings indicate higher potency in that assay, high ones lower potency in that assay. For orientation: Ki means a measure of affinity in units of concentration, obtained from inhibition or displacement. The low end stands for tighter binding, the high end for weaker binding.

Numbered stars: 1 amine (or outer) side, 2 acyl side, 3 side chain; on linkers, the order of the positions; unused ones are H or OH. Square brackets hold non-standard residues; d marks the D form. Peptide text beside a SMILES is read from it. ξ: configuration not given here. Oic(3aξ,7aξ) = O=C(O)[C@@H]1CC2CCCCC2N1; X2 = O=C([C@H]1c2ccccc2CCN1[*:1])[*:2]; X1 = O=C(CCCCCCCCCCCCN[*:1])[*:2]

For the compound `NCCCC[C@H](N)C(=O)N[C@@H](CCCN=C(N)N)C(=O)NCCCCCCCCCCCCC(=O)N[C@@H](CO)C(=O)N1CCC[C@H]1C(=O)N[C@@H](Cc1ccccc1)C(=O)O` (H-KR[X1]SPF-OH), the EC50 on B1 bradykinin receptor was 980 nM. Consider `N=C(N)NCCC[C@H](NC(=O)[C@H](N)CCCN=C(N)N)C(=O)NCCCCCCCCCCCC(=O)N[C@@H](CO)C(=O)N1CCc2ccccc2[C@@H]1C(=O)N1C2CCCCC2C[C@H]1C(=O)N[C@@H](CCCN=C(N)N)C(=O)O` (stereo not given in full), for which the Ki on B2 bradykinin receptor [1] turned out to be 360 nM. For the same compound, the Kb on B2 bradykinin receptor [2] was 3.16 µM. With `NCCCC[C@H](N)C(=O)N[C@@H](CCCN=C(N)N)C(=O)N1CCC[C@H]1C(=O)N1CCC[C@H]1C(=O)NCC(=O)N[C@@H](Cc1ccccc1)C(=O)N[C@@H](CO)C(=O)N1CCC[C@H]1C(=O)N[C@@H](Cc1ccccc1)C(=O)O`, the EC50 on B1 bradykinin receptor is 85 nM. Compound `NC(N)=NCCC[C@H](NC(=O)[C@@H]1CC2CCCCC2N1C(=O)[C@H]1c2ccccc2CCN1C(=O)[C@H](CO)NC(=O)CCCCCCCCCCCCNC(=O)[C@H](CCCN=C(N)N)NC(=O)[C@@H](N)CCCN=C(N)N)C(=O)O` (stereo not given in full) (H-RR[X1]S[X2][Oic(3aξ,7aξ)]R-OH) gave a Ki on B2 bradykinin receptor [3] of 44 nM.

For the origin of these results see ChEMBL document CHEMBL1130580, “Synthesis and biological activity of new bradykinin pseudopeptide B1 receptor agonists containing alkylic spacers” (Bioorg Med Chem Lett, 1997).
